Measured values as given in patent US11524010B2, “Substituted quinazoline sulfonamides as thioredoxin interacting protein (TXNIP) inhibitors” (SOUTHERN RESEARCH INSTITUTE, priority 2017, dated 2022).

Tests used:
[1] = INS-1 cell viability (Cell Titer-Glo, ATP); format: cell-based, Rat; conditions: rat, INS-1 cells, 72 hrs treatment
Protocol: INS-1 cell viability was determined based on quantification of ATP using Cell Titer-Glo Luminescent Cell Viability Assay kit (Promega #G7572), which indicates the presence of metabolically active cells. Briefly, INS-1 cells were seeded into 96-well plates at a cell density of 4.5×10^4 and 3.5×10^4 cells per well and incubated overnight at 37° C. with 5% CO2. On the following day, cells were treated with compounds for 24 hrs and 72 hrs respectively. Cell Titer-Glo reagent was added to the cells and Luminescence was acquired on Synergy 4 Reader ([…]).

TXNIP = test: Inhibition of glucose-induced endogenous TXNIP expression in INS-1 cells (qRT-PCR); format: cell-based, Rat; conditions: Rattus norvegicus, INS1, 24 h, 25 mM glucose; for inhibition at 1.5 µM: 1.5 μM compound; for inhibition at 12.5 µM: 12.5 μM compound
Protocol: The Rat INS-1 cell line was obtained from UAB and maintained in RPMI-1640 (Invitrogen #11875) supplemented with 10% fetal bovine serum (FBS), 100 U/ml penicillin and […] streptomycin, 10 mM HEPES, 1 mM Sodium Pyruvate, 50 μM 2-Mercaptoethanol, and 11.1 mM Glucose in a humidified incubator with a 5% C02 atmosphere at 37° C. 4×10^4 cells per well were seeded to 96-well plate and incubated at 37° C. overnight. A subset of the cells were then cultured in medium with 5 mM Glucose for 24 hrs and then treated in medium with 25 mM glucose with or without compounds to be tested for another 24 hrs.
For the primary high throughput screening (HTS) assay, stably transfected, monoclonal INS-1 cells were split using Trypsin (2 ml per T75 flask) and seeded at a density of 10^4/well in a 384-well plate and incubated overnight at low, 5 mM glucose. The next day, the medium was changed to high glucose (25 mM) or high glucose plus the small molecules to be tested and luciferase assays were performed 24 h later. […] For secondary screens, total RNA was extracted from 96-well cultured cells using RNeasy 96 kit (Qiagen #74181) following the manufacturer's protocol using spin technology. Then a one-step qRT-PCR amplification was performed using QuantiFast SYBR Green RT-PCR kit (Qiagen #204154) and was carried out in a 10 μl reaction which consisted of 2 μl RNA, 0.5 μM each of primers (Rat TXNIP 5′ primer: […] (SEQ ID NO:1) and Rat TXNIP 3′ primer: […] (SEQ ID NO:2); Or Rat 18S rRNA 5′ primer: […] (SEQ ID NO:3) and Rat 18S rRNA 3′ primer: […]) (SEQ ID NO:4), 5 μl 2×SYBR Green Master Mix, 0.1 μl 10× QuantiFast RT Mix. The SYBR Green assay was performed using a LightCycler 480 II (Roche Applied Science) with an initial incubation at 50° C. for 10 min for RT followed by denaturation at 95° C. for 5 min. Forty cycles of amplification were performed using a thermal cycling profile of 95° C. for 10s, 60° C. for 30 s. Subsequently, a melting curve was recorded by holding at 95° C. for 60 s, cooling to 60° C. for 60 s, and then heating at 0.11° C./s up to 95° C. The data was collected and analyzed using the LightCycler 480 Software Release 1.5.0 SP3. The relative amount of TXNIP mRNA was normalized to 18 s rRNA level as a housekeeping gene, and the data was analyzed according to the 2^−ΔΔCT method (1). The transformed data was expressed as % inhibition and compound IC50 calculated by a 4-parameter logistic fit of the data using GraphPad Prism 7.

`O=S(=O)(NCC1CCCN(c2ncnc3ccc(C(F)(F)F)cc23)C1)C1CCCCC1` (stereo not drawn) [Compound 55, N-((1-(6-(trifluoromethyl)quinazolin-4-yl)piperidin-3-yl)methyl)cyclohexanesulfonamide] gave a CC50 at 72 h [1] of 7 µM, an inhibition at 1.5 µM (TXNIP) of 29% and an inhibition at 12.5 µM (TXNIP) of 41%.
In the case of `CS(=O)(=O)NCC1(F)CCCN(c2ncnc3cc(F)c(C#N)cc23)C1` (stereo not drawn) [Compound 50, N-((1-(6-cyano-7-fluoroquinazolin-4-yl)-3-fluoropiperidin-3-yl)methyl)methanesulfonamide], the CC50 at 72 h [1] is reported as > 100 µM, the inhibition at 1.5 µM (TXNIP) is reported as 2% and the inhibition at 12.5 µM (TXNIP) is reported as 18%.
With `CS(=O)(=O)NCC1CCCN(c2ncnc3ccc(C#N)cc23)C1` (stereo not drawn) [Compound 13, N-((1-(6-cyanoquinazolin-4-yl)piperidin-3-yl)methyl)methanesulfonamide] the CC50 at 72 h [1] was 42 µM, the inhibition at 1.5 µM (TXNIP) was 41% and the inhibition at 12.5 µM (TXNIP) was 1%.
With `CC1(CNS(C)(=O)=O)CCCN(c2ncnc3cc(F)c(C#N)cc23)C1` (stereo not drawn) [Compound 48] the CC50 at 72 h [1] was > 100 µM, the inhibition at 1.5 µM (TXNIP) was 3% and the inhibition at 12.5 µM (TXNIP) was 26%.
In the case of `CS(=O)(=O)NC1CCCN(c2ncnc3ccc(C(F)(F)F)cc23)C1` (stereo not drawn) [Compound 38, N-(1-(6-(trifluoromethyl)quinazolin-4-yl)piperidin-3-yl)methanesulfonamide], the CC50 at 72 h [1] is reported as > 100 µM, the inhibition at 1.5 µM (TXNIP) is reported as 34% and the inhibition at 12.5 µM (TXNIP) is reported as 60%.
With `NC(=O)c1cc2ncnc(N3CCCC(CNS(=O)(=O)C4CC4)C3)c2cc1F` (stereo not drawn) [Compound 59, 4-(3-(cyclopropanesulfonamidomethyl)piperidin-1-yl)-6-fluoroquinazoline-7-carboxamide] the CC50 at 72 h [1] was > 100 µM, the inhibition at 1.5 µM (TXNIP) was 5% and the inhibition at 12.5 µM (TXNIP) was 5%.
In the case of `CS(=O)(=O)NCC1CCCN(c2ncnc3cc(C(=O)O)ccc23)C1` (stereo not drawn) [Compound 18, 4-(3-(methylsulfonamidomethyl)piperidin-1-yl)quinazoline-7-carboxylic acid], the CC50 at 72 h [1] is reported as > 100 µM, the inhibition at 1.5 µM (TXNIP) is reported as 10% and the inhibition at 12.5 µM (TXNIP) is reported as 10%.
In the case of `CS(=O)(=O)NCC1CCCCN1c1ncnc2cc(C#N)c(F)cc12` (stereo not drawn) [Compound 43, N-((1-(7-cyano-6-fluoroquinazolin-4-yl)piperidin-2-yl)methyl)methane-sulfonamide], the CC50 at 72 h [1] is reported as > 100 µM, the inhibition at 1.5 µM (TXNIP) is reported as 0% and the inhibition at 12.5 µM (TXNIP) is reported as 16%.
In the case of `O=S(=O)(NCC1CCCN(c2ncnc3ccc(F)cc23)C1)N1CCOCC1` (stereo not drawn) [Compound 60, N-((1-(6-fluoroquinazolin-4-yl)piperidin-3-yl)methyl)morpholine-4-sulfonamide], the CC50 at 72 h [1] is reported as 16 µM, the inhibition at 1.5 µM (TXNIP) is reported as 32% and the inhibition at 12.5 µM (TXNIP) is reported as 56%.
With `CC(NS(C)(=O)=O)C1CCCN(c2ncnc3cc(F)c(F)cc23)C1` (stereo not drawn) [Compound 45, N-(1-(1-(6,7-difluoroquinazolin-4-yl)piperidin-3-yl)ethyl)methanesulfonamide] the CC50 at 72 h [1] was > 100 µM, the inhibition at 1.5 µM (TXNIP) was 22% and the inhibition at 12.5 µM (TXNIP) was 44%.
In the case of `CS(=O)(=O)NCC1CCCN(c2ncnc3cccc(Cl)c23)C1` (stereo not drawn) [Compound 6, N-((1-(5-chloroquinazolin-4-yl)piperidin-3-yl)methyl)methanesulfonamide], the CC50 at 72 h [1] is reported as > 100 µM, the inhibition at 1.5 µM (TXNIP) is reported as 29% and the inhibition at 12.5 µM (TXNIP) is reported as 43%.
With `CC(C)c1nc(N2CCCC(CNS(C)(=O)=O)C2)c2ccccc2n1` (stereo not drawn) [Compound 15, N-((1-(2-isopropylquinazolin-4-yl)piperidin-3-yl)methyl)methanesulfonamide] the CC50 at 72 h [1] was 73 µM, the inhibition at 1.5 µM (TXNIP) was 0% and the inhibition at 12.5 µM (TXNIP) was 20%.
With `CS(=O)(=O)NCC1CCCN(c2ncnc3ccc(-c4ncco4)cc23)C1` (stereo not drawn) [Compound 26, N-((1-(6-(oxazol-2-yl)quinazolin-4-yl)piperidin-3-yl)methyl)methanesulfonamide] the CC50 at 72 h [1] was > 100 µM, the inhibition at 1.5 µM (TXNIP) was 2% and the inhibition at 12.5 µM (TXNIP) was 28%.
Work on `CS(=O)(=O)NC1CCCN(c2ncnc3ccc(F)cc23)C1` (stereo not drawn) [Compound 34, N-(1-(6-fluoroquinazolin-4-yl)piperidin-3-yl)methanesulfonamide] yielded a CC50 at 72 h [1] of 33 µM, an inhibition at 1.5 µM (TXNIP) of 56% and an inhibition at 12.5 µM (TXNIP) of 61%.
In the case of `N#Cc1cc2ncnc(N3CCCC(CNS(=O)(=O)C(F)(F)F)C3)c2cc1F` (stereo not drawn) [Compound 53, N-((1-(7-cyano-6-fluoroquinazolin-4-yl)piperidin-3-yl)methyl)-1,1,1-trifluoromethanesulfonamide], the CC50 at 72 h [1] is reported as > 100 µM, the inhibition at 1.5 µM (TXNIP) is reported as 7% and the inhibition at 12.5 µM (TXNIP) is reported as 24%.
With `CS(=O)(=O)NC1CCCN(c2ncnc3ccc(Cl)cc23)C1` (stereo not drawn) [Compound 35, N-(1-(6-chloroquinazolin-4-yl)piperidin-3-yl)methanesulfonamide] the CC50 at 72 h [1] was 41 µM, the inhibition at 1.5 µM (TXNIP) was 38% and the inhibition at 12.5 µM (TXNIP) was 64%.
In the case of `CS(=O)(=O)NCC1CCCN(c2ncnc3ccc(S(C)(=O)=O)cc23)C1` (stereo not drawn) [Compound 14, N-((1-(6-(methylsulfonyl)quinazolin-4-yl)piperidin-3-yl)methyl)methanesulfonamide], the CC50 at 72 h [1] is reported as > 100 µM, the inhibition at 1.5 µM (TXNIP) is reported as 0% and the inhibition at 12.5 µM (TXNIP) is reported as 24%.
In the case of `CS(=O)(=O)NC1CCCN(c2ncnc3cc(C#N)c(F)cc23)C1` (stereo not drawn) [Compound 36, N-(1-(7-cyano-6-fluoroquinazolin-4-yl)piperidin-3-yl)methanesulfonamide], the CC50 at 72 h [1] is reported as 35 µM, the inhibition at 1.5 µM (TXNIP) is reported as 0% and the inhibition at 12.5 µM (TXNIP) is reported as 34%.
For `CS(=O)(=O)NC1CCCN(c2ncnc3cc(F)c(C(F)(F)F)cc23)C1` (stereo not drawn) [Compound 39, N-(1-(7-fluoro-6-(trifluoromethyl)quinazolin-4-yl)piperidin-3-yl)methanesulfonamide], the CC50 at 72 h [1] was > 100 µM, the inhibition at 1.5 µM (TXNIP) was 7% and the inhibition at 12.5 µM (TXNIP) was 28%.
For `CS(=O)(=O)NC1CCCN(c2ncnc3ccccc23)C1` (stereo not drawn) [Compound 31, N-(1-(quinazolin-4-yl)piperidin-3-yl)methanesulfonamide], the CC50 at 72 h [1] was 67 µM, the inhibition at 1.5 µM (TXNIP) was 17% and the inhibition at 12.5 µM (TXNIP) was 82%.
Work on `CS(=O)(=O)NCC1CCCN(c2ncnc3ccc(-c4ccccn4)cc23)C1` (stereo not drawn) [Compound 27, N-((1-(6-(pyridin-2-yl)quinazolin-4-yl)piperidin-3-yl)methyl)methanesulfonamide] yielded a CC50 at 72 h [1] of 70 µM, an inhibition at 1.5 µM (TXNIP) of 9% and an inhibition at 12.5 µM (TXNIP) of 4%.
Work on `COc1ccc2ncnc(N3CCCC(CN(C(C)C)S(=O)(=O)c4ccccc4)C3)c2c1` (stereo not drawn) [Compound 41, N-isopropyl-N-((1-(6-methoxyquinazolin-4-yl)piperidin-3-yl)methyl)benzene-sulfonamide] yielded a CC50 at 72 h [1] of 7 µM, an inhibition at 1.5 µM (TXNIP) of 36% and an inhibition at 12.5 µM (TXNIP) of 65%.
With `CS(=O)(=O)NCC1CCCN(c2ncnc3c(F)cccc23)C1` (stereo not drawn) [Compound 3, N-((1-(8-fluoroquinazolin-4-yl)piperidin-3-yl)methyl)methanesulfonamide] the CC50 at 72 h [1] was > 100 µM, the inhibition at 1.5 µM (TXNIP) was 4% and the inhibition at 12.5 µM (TXNIP) was 59%.
In the case of `CS(=O)(=O)NCC1(O)CCCN(c2ncnc3cc(F)c(C#N)cc23)C1` (stereo not drawn) [Compound 49, N-((1-(6-cyano-7-fluoroquinazolin-4-yl)-3-hydroxypiperidin-3-yl)methyl)methanesulfonamide], the CC50 at 72 h [1] is reported as > 100 µM, the inhibition at 1.5 µM (TXNIP) is reported as 2% and the inhibition at 12.5 µM (TXNIP) is reported as 2%.
With `CS(=O)(=O)NC1CN(c2ncnc3ccc(F)cc23)C1` [Compound 52] the CC50 at 72 h [1] was > 100 µM, the inhibition at 1.5 µM (TXNIP) was 4% and the inhibition at 12.5 µM (TXNIP) was 5%.
